≈ marks a conversion by molar mass, not a printed value.
Tests used:
[1] = target: Carbonic anhydrase 1 (Homo sapiens, UniProt P00915); assay: Inhibition of human carbonic anhydrase 1
[2] = target: Carbonic anhydrase 2 (Homo sapiens, UniProt P00918); assay: Inhibition of human carbonic anhydrase 2
[3] = target: Carbonic anhydrase (Bos taurus, UniProt P00921+Q95323+P18915+Q3SZX4); assay: Inhibition of bovine carbonic anhydrase 5; assay type: protein assay
[4] = target: Carbonic anhydrase 9 (Homo sapiens, UniProt Q16790); assay: Inhibition of human carbonic anhydrase 9
[5] = system: Human immunodeficiency virus 1; assay: Antiviral activity against HIV1 infected in human MT4 cells; assay type: functional, organism-based; settings: Human immunodeficiency virus 1, MT4
[6] = system: Human immunodeficiency virus 2; assay: Antiviral activity against HIV2 infected in human MT4 cells; assay type: functional, organism-based; settings: Human immunodeficiency virus 2, MT4
[7] = target: T1, Polyunsaturated fatty acid 5-lipoxygenase (Homo sapiens, UniProt P09917); assay: Inhibition of 5-LO (unknown origin)
T1 sequence (P09917 whole entry): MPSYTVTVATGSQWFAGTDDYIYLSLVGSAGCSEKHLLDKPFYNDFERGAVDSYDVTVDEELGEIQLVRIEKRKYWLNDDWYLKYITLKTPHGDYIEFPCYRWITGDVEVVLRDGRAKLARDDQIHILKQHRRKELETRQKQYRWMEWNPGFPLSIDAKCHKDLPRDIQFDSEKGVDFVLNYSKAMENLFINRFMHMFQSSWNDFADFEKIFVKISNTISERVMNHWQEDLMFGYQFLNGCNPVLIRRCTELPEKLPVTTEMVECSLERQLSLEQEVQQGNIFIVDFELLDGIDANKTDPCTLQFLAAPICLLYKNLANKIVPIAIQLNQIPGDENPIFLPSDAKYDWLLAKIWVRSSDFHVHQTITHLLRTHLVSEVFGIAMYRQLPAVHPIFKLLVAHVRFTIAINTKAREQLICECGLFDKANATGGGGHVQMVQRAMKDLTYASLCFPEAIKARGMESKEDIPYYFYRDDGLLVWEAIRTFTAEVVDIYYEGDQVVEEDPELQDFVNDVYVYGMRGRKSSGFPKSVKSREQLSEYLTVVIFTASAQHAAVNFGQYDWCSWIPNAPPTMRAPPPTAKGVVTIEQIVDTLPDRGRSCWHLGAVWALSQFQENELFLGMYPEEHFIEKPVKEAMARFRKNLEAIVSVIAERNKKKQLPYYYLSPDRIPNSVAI

[8] = target: Cyclooxygenase (Homo sapiens, UniProt P35354+P23219); assay: Inhibition of CO (unknown origin)
[9] = system: Helicobacter pylori; assay: Antimicrobial activity against Helicobacter pylori by disc diffusion method; assay type: functional
[10] = system: Helicobacter pylori; assay: Potency index, ratio of IZ for compound to IZ for metronidazole against Helicobacter pylori by disc diffusion method; assay type: functional
[11] = system: Helicobacter pylori; assay: Antimicrobial activity against Helicobacter pylori at 1 ug/disc; assay type: functional; settings: read-out: IZ
[12] = species: Mus musculus; assay: Anticonvulsant activity in mouse by MES test; assay type: functional
[13] = system: Human immunodeficiency virus 1; assay: Antiviral activity against HIV1 3B by MTT assay; assay type: functional, organism-based; settings: Human immunodeficiency virus 1, 3B
[14] = system: Human immunodeficiency virus 2; assay: Antiviral activity against HIV2 ROD by MTT assay; assay type: functional, organism-based; settings: Human immunodeficiency virus 2, ISOLATE ROD
[15] = species: Mus musculus; assay: Anticonvulsant activity in mouse assessed as protection against shock-induced seizures by MES test; assay type: functional

Chain of Carbonic anhydrase 1 (P00915 whole entry): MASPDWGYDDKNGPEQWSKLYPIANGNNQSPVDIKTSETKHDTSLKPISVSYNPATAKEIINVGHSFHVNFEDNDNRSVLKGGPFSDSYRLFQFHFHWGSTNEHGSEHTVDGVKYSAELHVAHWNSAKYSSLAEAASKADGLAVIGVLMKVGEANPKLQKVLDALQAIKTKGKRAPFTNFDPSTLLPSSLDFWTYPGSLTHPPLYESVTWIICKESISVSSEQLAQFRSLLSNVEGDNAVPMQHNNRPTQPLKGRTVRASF

What does the source list for `NS(=O)(=O)c1nnc(NS(=O)(=O)c2ccc(-[n+]3ccccc3)cc2)s1`?
Ki [1]: 3 nM; Ki [2]: 0.2 nM; Ki [3]: 2 nM; Ki [4]: 6 nM

For `c1ccc(C2=Nn3cnnc3SC2)cc1`, which EC50 [5] is on record?
The EC50 was 1.97 µg/mL (≈ 9.11 µM).

And the EC50 [6]?
Its EC50 is 1.97 µg/mL (≈ 9.11 µM).

What does the source list for `CC(C)(C)c1cc(-c2n[nH]c(=S)s2)cc(C(C)(C)C)c1O.C[N+](C)(C)CCO`?
IC50 [7]: 2800 nM; IC50 [8]: 800 nM

Which results are given for `CC1CN(c2nnc(-c3ncc([N+](=O)[O-])n3C)s2)CC(C)N1` (centres undefined)?
inhibition zone (IZ) [9]: 30.9 mm; fold change (FC) [10]: 5

How did the zone of inhibition at 1 µg/disc [11] turn out when `Cc1ncc([N+](=O)[O-])n1CCO` [METRONIDAZOLE] was run?
The zone of inhibition at 1 µg/disc was 16.3 mm.

And the “inhibition zone (IZ)” value [9]?
The value was 6 mm.

With `CNc1nnc(-c2ccccc2-c2ccccc2)s1` as the compound, how does the ED50 [12] read?
Its ED50 is 18 mg/kg.

For `Cn1c([N+](=O)[O-])cnc1-c1nnc(S)s1`, which zone of inhibition at 1 µg/disc [11] is on record?
Its zone of inhibition at 1 µg/disc is 7.7 mm.

`Cc1ccc(S(=O)(=O)NCc2nnc(Nc3ccc(Cl)cc3)s2)cc1` was tested. Which EC50 [5] did it give?
The EC50 was 23.9 µg/mL (≈ 60.5 µM).

What about the EC50 [6] of the same compound?
The EC50 was 9.9 µg/mL (≈ 25.1 µM).

What does the source list for `O=C(COc1ccc2ccccc2c1)NCc1nnc(Nc2ccccc2)s1`?
EC50 [13]: 0.961 µg/mL (≈ 2.46 µM); EC50 [14]: 0.961 µg/mL (≈ 2.46 µM)

For `Clc1ccc(Nc2nnc(-c3ccncc3)s2)cc1`, which Activity [15] is on record?
Its Activity is 100%.

From ChEMBL document CHEMBL3407389, “1,3,4-Thiadiazoles: a potent multi targeted pharmacological scaffold” (Eur J Med Chem, 2015)
